In ChEMBL document CHEMBL1201862, “PubChem BioAssay data set” (2004):
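Tested at 5 concentrations; 48 h exposure; 96-well plates; endpoints linearly interpolated, else capped at highest concentration. Abbreviation: GI50, concentration required for 50% inhibition of growth.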 The source made the active and inactive calls. Rule as the data show it: active = GI50 up to about 1.1 µM and inactive = higher.

What was measured:
Test in all cases: NCI tumour cell line growth inhibition, 48 h
786-0 = test system: 786-0
BT-549 = test system: BT-549
CAKI-1 = test system: CAKI-1
DU-145 = test system: DU-145
HCT-116 = test system: HCT-116
HOP-62 = test system: HOP-62
HT-29 = test system: HT-29
MDA-MB-231 = test system: MDA-MB-231
MDA-MB-435 = test system: MDA-MB-435
Malme-3M = test system: Malme-3M
NCI-H460 = test system: NCI-H460
NCI-H522 = test system: NCI-H522
NCI/ADR-RES = test system: NCI/ADR-RES
OVCAR-8 = test system: OVCAR-8
RXF 393 = test system: RXF 393
SF-539 = test system: SF-539
TK-10 = test system: TK-10
UACC-62 = test system: UACC-62
UO-31 = test system: UO-31

Measured: GI50

NC(=O)c1nc[nH]c1/N=N/SCC(N)C(=O)O (stereo not drawn)
inactive: 786-0 19.4 µM | BT-549 > 90.8 µM | CAKI-1 4.21 µM | DU-145 5.11 µM | HCT-116 6.9 µM | HOP-62 28.7 µM | HT-29 > 100 µM | MDA-MB-231 6.04 µM | MDA-MB-435 33.1 µM | Malme-3M 5.9 µM | NCI-H460 12.7 µM | NCI-H522 > 68.7 µM | NCI/ADR-RES 6.58 µM | OVCAR-8 5.74 µM | RXF 393 > 100 µM | SF-539 17.6 µM | TK-10 5.32 µM | UACC-62 6.31 µM | UO-31 4.22 µM

Cc1cc(NS(=O)(=O)c2ccc(/N=[N+](\[O-])c3ccc(S(=O)(=O)Nc4cc(C)on4)cc3)cc2)no1
inactive: 786-0 > 100 µM | BT-549 > 100 µM | CAKI-1 > 100 µM | DU-145 > 100 µM | HCT-116 > 100 µM | HOP-62 > 100 µM | HT-29 > 100 µM | MDA-MB-231 > 100 µM | MDA-MB-435 > 100 µM | Malme-3M > 100 µM | NCI-H522 > 100 µM | NCI/ADR-RES > 100 µM | OVCAR-8 > 100 µM | RXF 393 > 100 µM | SF-539 > 100 µM | TK-10 > 100 µM | UACC-62 > 100 µM | UO-31 > 100 µM

CCc1nc(N)nc(N)c1-c1ccc(Cl)c([N+]#N)c1
inactive: 786-0 48.2 µM | BT-549 > 100 µM | CAKI-1 58.3 µM | DU-145 80.2 µM | HCT-116 41.8 µM | HOP-62 82 µM | HT-29 33.3 µM | MDA-MB-231 > 100 µM | MDA-MB-435 38.7 µM | Malme-3M > 100 µM | NCI-H460 37.8 µM | NCI-H522 38.7 µM | NCI/ADR-RES 49.8 µM | OVCAR-8 66.8 µM | RXF 393 > 100 µM | SF-539 44.3 µM | TK-10 > 100 µM | UACC-62 41 µM | UO-31 78.3 µM

N#CC(C#N)=C1/C(=C/C=C/C=C/C=C/c2ccc(N3CCCCC3)s2)S(=O)(=O)c2ccccc21
inactive: 786-0 93.1 µM | BT-549 > 100 µM | CAKI-1 > 100 µM | DU-145 55 µM | HCT-116 > 100 µM | HOP-62 33.7 µM | HT-29 > 100 µM | MDA-MB-231 > 100 µM | MDA-MB-435 > 100 µM | NCI-H460 > 100 µM | NCI-H522 22.1 µM | NCI/ADR-RES > 100 µM | OVCAR-8 67.3 µM | RXF 393 > 100 µM | SF-539 > 100 µM | TK-10 81.3 µM | UACC-62 > 100 µM
